Key:
Type in all cases: cell-based, rhesus monkeys
[1] = system: isolated peripheral vascular muscle cells (VMC) from large arteries of the foreleg; assay: Averaged Ca2+ signals in nicotine-stimulated VMC; conditions: VMC pre-treated with wash of 4 ng/ml hormone; for decrease in peripheral-to-central Ca2+ localization ratio / peak of Ca2+ increase after nicotine stimulation: 10 μM nicotine; for peak of Ca2+ increase after nicotine stimulation: versus non-treatment group; for whole cell Ca2+ response to nicotine stimulation: stimulated with 10 μM nicotine
Description: (§1) Single VMCs from large arteries of the foreleg of adult rhesus monkeys are isolated and studied both as freshly dispersed and as primary cultures. The short-term primary cultured cells (never passaged) maintain the characteristics of the source tissue for 2 to 3 weeks, including contraction, relaxation, receptors, and membrane electrical properties. VMCs are dissociated with collagenase and protease enzymes in a potassium glutamate solution (KG) that prevents loading with Na^+, Ca^2′, or Cl^− and results in a high proportion of viable, contracting cells. See, Self, D. A., et al., J. Vasc. Res. 31:359-366 (1994); and Rusch., N. J., et al., Physiology and Pathophysiology of the Heart, 999-1010 (1995), each of which is incorporated herein by reference. The cells prepared for culture are seeded at low density in cardiovascular culture solution for mammals, fifth generation (CV5M) on glass coverslips to facilitate selection of individual cells. VMCs are used for studies 7 to 14 days after attaching to coverslips.
(§2) Freshly dispersed or primary cultured VMCs on glass coverslips are placed in a chamber of laminar flow design and observed with a high numerical aperture water immersion objective. Ionic solution for mammals version 2 (ISM2) is continuously pumped through the chamber (at 1 ml/minute) to provide continuous equilibration and washout of drugs. After a 15 minutes equilibration period, VMC are loaded for 15 minutes at room temperature with 3 μM fluo 3 (Molecular Probes, Inc.) for sensing Ca^2+ and for 10 minutes with 30-100 nM hypericin (LC Laboratories) for reporting PKC. Individual VMC are stimulated by adding 20 μl of 10 μM nicotine over the individual cell. After 15 seconds under no-flow conditions, continuous flow of ISM2 was reinstated and a chamber volume of approximately 300 μl was maintained. Fluorescent images are taken at 1, 2, 5, 10, 15, 20 and 30 minutes after stimulation for Ca^2+ and at 3, 4, 9, 16, 21 and 31 minutes for PKC to evaluate subcellular distribution of these signals, and to determine VMC contraction.
(§3) ISM2 contains (in mM): 100 NaCl, 4 NaHCO3, 0.5 NaH2PO4, 4.7 KCl, 1.8 CaCl2, 0.41 […], 50 HEPES (pH 7.37), and 5.5 dextrose; KG solution contains (in mM); 140 K-glutamate, 16 NaHCO3, 0.5 NaH2PO4, 30 HEPES, and 16.5 dextrose at pH 7.3. CV5M contains: 4.0 mM L-glutamine, 10 μg/ml ciprofloxacin (Miles Pentex/Bayer Corporation), 50 mM HEPES (pH 7.3), and 16 mM NaHCO3 dissolved in 85% MEM-Earle's salts and 15% horse serum. Phenol red, known to have estrogenic activity, is omitted from all solutions.
One group of cells is pre-treated with a wash of 4 ng/ml of progesterone before stimulation with nicotine. A second group of cells is pre-treated with a wash of 4 ng/ml testosterone before stimulation. A third group of cells, the “non-treatment group”, is pre-treated with a wash of normal saline before stimulation. A fourth group of cells, which forms the control group, is pre-treated with a wash of normal saline and followed by “stimulation” with normal saline.
Normalized (per pixel) changes in intracellular Ca^2+ levels are expressed as averages over whole VMC and as peripheral-to-central ratios. […] The ratio decreases because of Ca^2+ release from intracellular stores.

[2] = system: isolated peripheral vascular muscle cells (VMC) from large arteries of the foreleg; assay: Averaged PKC signals in nicotine-stimulated VMC; conditions: VMC pre-treated with wash of 4 ng/ml hormone, 10 μM nicotine; for peripheral-to-central PKC ratio: versus control; for change of PKC loci or intensity after nicotine stimulation: versus control values
Description: as §1, §2, §3
One group of cells is pre-treated with a wash of 4 ng/ml of progesterone before stimulation with nicotine. A second group of cells is pre-treated with a wash of 4 ng/ml testosterone before stimulation. […]

[3] = system: isolated peripheral vascular muscle cells (VMC) from large arteries of the foreleg; assay: Averaged contractions (cell width) of nicotine-stimulated VMC; conditions: primary cultured VMC pre-treated with wash of 4 ng/ml hormone, 10 μM nicotine; versus 0-min controls
Description: as §1
Freshly dispersed or primary cultured VMCs on glass coverslips are placed in a chamber of laminar flow design and observed with a high numerical aperture water immersion objective. […]
Normalized changes in cell widths from primary cultured VMC is determined.

Compound	decrease in peripheral-to-central Ca2+ localization ratio [1]	peak of Ca2+ increase after nicotine stimulation [1]	whole cell Ca2+ response to nicotine stimulation [1]	peripheral-to-central PKC ratio [2]	change of PKC loci or intensity after nicotine stimulation [2]	VMC contractions (central cell widening) [3]
CC(=O)[C@H]1CC[C@H]2[C@@H]3CCC4=CC(=O)CC[C@]4(C)[C@H]3CC[C@]12C [progesterone]	too small to be significant	smaller peak than in the non-treatment group	only transiently stimulated by nicotine	never significantly different from control	fails to change PKC loci or intensity significantly from control values	significantly different from 0-min controls only in the first few minutes following stimulation
C[C@]12CC[C@H]3[C@@H](CCC4=CC(=O)CC[C@@]43C)[C@@H]1CC[C@@H]2O [testosterone]	too small to be significant	smaller peak than in the non-treatment group	only transiently stimulated by nicotine	never significantly different from control	fails to change PKC loci or intensity significantly from control values	significantly different from 0-min controls only in the first few minutes following stimulation

— patent US20120232046A1, “METHOD AND KIT FOR REDUCING THE SYMPTOMS OF PERIPHERAL VASCULAR DISEASE” (Dimera Incorporated, priority 2003, published 2012)
